Source: paper PMC4448943 (Neurotoxicology, 2014)
Read-outs that look alike come from different tables or passages of the source.

Experiments:
[1] = molecular target: T1, rat hippocampal AChE (Rattus norvegicus, UniProt P37136); format: biochemical
T1 sequence (P37136 32-614): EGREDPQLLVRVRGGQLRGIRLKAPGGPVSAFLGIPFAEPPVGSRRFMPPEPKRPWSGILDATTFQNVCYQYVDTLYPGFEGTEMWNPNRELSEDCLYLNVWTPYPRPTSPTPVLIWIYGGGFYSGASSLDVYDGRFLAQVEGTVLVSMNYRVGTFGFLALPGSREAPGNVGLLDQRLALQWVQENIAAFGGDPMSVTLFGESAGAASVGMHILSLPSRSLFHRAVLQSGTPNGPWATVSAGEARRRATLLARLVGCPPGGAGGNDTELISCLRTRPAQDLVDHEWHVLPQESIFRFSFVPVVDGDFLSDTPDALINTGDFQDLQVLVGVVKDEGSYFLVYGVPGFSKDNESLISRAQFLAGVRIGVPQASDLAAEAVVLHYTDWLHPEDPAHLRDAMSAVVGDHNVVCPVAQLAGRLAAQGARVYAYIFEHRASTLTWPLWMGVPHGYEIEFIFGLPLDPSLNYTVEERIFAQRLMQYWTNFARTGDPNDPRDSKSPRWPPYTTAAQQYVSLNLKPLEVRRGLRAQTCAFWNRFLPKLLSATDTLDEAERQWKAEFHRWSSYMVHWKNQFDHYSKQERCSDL

[2] = test system: Adult male Sprague-Dawley rats; conditions: rat, in vivo
[3] = molecular target: T2, rat hippocampal MAGL (Rattus norvegicus, UniProt Q8R431); test: In vitro inhibition of hippocampal MAGL activity; format: biochemical; conditions: CPO more potent than PO
T2 sequence (Q8R431 1-303): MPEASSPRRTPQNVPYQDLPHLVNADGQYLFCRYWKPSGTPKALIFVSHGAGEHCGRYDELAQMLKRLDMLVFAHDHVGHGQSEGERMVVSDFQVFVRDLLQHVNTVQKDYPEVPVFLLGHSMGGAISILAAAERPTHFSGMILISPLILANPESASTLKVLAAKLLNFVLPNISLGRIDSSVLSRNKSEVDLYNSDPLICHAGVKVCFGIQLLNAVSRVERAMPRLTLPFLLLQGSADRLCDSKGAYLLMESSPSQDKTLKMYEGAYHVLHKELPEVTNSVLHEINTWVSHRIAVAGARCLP

[4] = test system: Adult male Sprague-Dawley rats; conditions: rat, in vivo; remark: listed apart in the source
[5] = molecular target: T3, hippocampal FAAH (Rattus norvegicus, UniProt P97612); conditions: four hours after dosing, PO 0.3 and 0.6 mg/kg sc, CPO 6 and 12 mg/kg sc
T3 sequence (P97612 1-579): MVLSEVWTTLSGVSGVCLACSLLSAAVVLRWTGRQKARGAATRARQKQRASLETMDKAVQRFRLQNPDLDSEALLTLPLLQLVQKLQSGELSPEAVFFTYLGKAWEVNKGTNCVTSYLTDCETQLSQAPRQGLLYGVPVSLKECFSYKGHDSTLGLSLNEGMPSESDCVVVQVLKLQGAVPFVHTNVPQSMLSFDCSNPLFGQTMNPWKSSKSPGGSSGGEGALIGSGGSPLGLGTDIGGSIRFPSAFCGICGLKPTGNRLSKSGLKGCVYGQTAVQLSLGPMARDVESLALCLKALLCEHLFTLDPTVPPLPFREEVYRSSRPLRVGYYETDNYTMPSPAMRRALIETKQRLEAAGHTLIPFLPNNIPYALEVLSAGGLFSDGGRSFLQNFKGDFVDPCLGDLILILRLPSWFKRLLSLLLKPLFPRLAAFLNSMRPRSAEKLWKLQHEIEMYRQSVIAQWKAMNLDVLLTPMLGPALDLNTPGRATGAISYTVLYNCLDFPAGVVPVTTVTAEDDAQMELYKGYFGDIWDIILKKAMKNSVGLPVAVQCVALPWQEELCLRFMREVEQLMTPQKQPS

[6] = molecular target: T4, rat hippocampal FAAH (Rattus norvegicus, UniProt P97612); test: In vitro inhibition of hippocampal FAAH activity; format: biochemical
T4 sequence (P97612 1-579): T3 sequence (P97612 1-579)

[7] = molecular target: T5, hippocampal AChE (Rattus norvegicus, UniProt P37136); format: in vivo
T5 sequence (P37136 32-614): T1 sequence (P37136 32-614)

[8] = molecular target: T6, hippocampal MAGL (Rattus norvegicus, UniProt Q8R431); format: in vivo; conditions: four hours after dosing; PO 0.3 and 0.6 mg/kg sc, CPO 6 and 12 mg/kg sc
T6 sequence (Q8R431 1-303): T2 sequence (Q8R431 1-303)

[9] = test system: rats; conditions: rat, in vivo, cited from earlier work

For CCOP(=O)(OCC)Oc1nc(Cl)c(Cl)cc1Cl [chlorpyrifos oxon], which “In vitro potency at inhibiting AChE relative to PO” value [1] is on record?
Its value is “≈ 2 fold”.

And the “Involuntary movements (tremors)” value [2]?
Its value is “dose-related”.

And the “SLUD signs (primarily defecation and lacrimation)” value [2]?
Its value is “slightly increased”.

What about the “In vitro potency at inhibiting MAGL relative to PO” value [3] of the same molecule?
Its value is “≈ 19 fold”.

And the Lethality ([4]; male, Sprague-Dawley)?
Its Lethality is 0/6.

What about the Lethality [4] of the same molecule?
Its Lethality is “no lethality”.

What about the “In vivo inhibition of hippocampal FAAH activity” value [5] of the same molecule?
Its value is 90–95%.

What about the “In vivo inhibition of hippocampal FAAH activity” value ([5]; listed as CPO) of the same molecule?
Its value is 80–90%.

What about the IC50 [6] of the same molecule?
Its IC50 is 71 nM.

And the “In vitro potency at inhibiting FAAH relative to PO” value ([6]; CPO more potent than PO)?
The value was “≈ 8 fold”.

What about the “In vivo inhibition of hippocampal AChE activity” value ([7]; rat, in vivo) of the same molecule?
The value was 80–90%.

What about the “In vivo inhibition of hippocampal MAGL activity” value [8] of the same molecule?
The value was 37–50%.

Which “Influence on responses to chlorpyrifos” value [9] does the source give for Cc1c(C(=O)NN2CCCCC2)nn(-c2ccc(Cl)cc2Cl)c1-c1ccc(I)cc1 [AM251, N-(piperidin-1-yl)-5-(4-iodophenyl)-1-(2,4-dichlorophenyl)-4-methyl-1H-pyrazole-3-carboxamide] here?
The value was “no influence”.

For CCOP(=O)(OCC)Oc1ccc([N+](=O)[O-])cc1 [paraoxon, Paraoxon], which “Involuntary movements (tremors)” value [2] is on record?
The value was “dose-related”.

And the “SLUD signs (primarily defecation and lacrimation)” value [2]?
Its value is “slightly increased”.

What about the Lethality ([4]; male, Sprague-Dawley, 0.6 mg/kg) of the same molecule?
The Lethality was 2/14.

And the “In vivo inhibition of hippocampal FAAH activity” value [5]?
The value was 90–95%.

What about the “In vivo inhibition of hippocampal FAAH activity” value ([5]; listed as PO) of the same molecule?
The value was 80–90%.

And the IC50 [6]?
Its IC50 is 562 nM.

And the “In vivo inhibition of hippocampal AChE activity” value ([7]; four hours after dosing, PO 0.3 and 0.6 mg/kg sc, CPO 6 and 12 mg/kg sc)?
Its value is 80–90%.

And the “In vivo inhibition of hippocampal MAGL activity” value [8]?
Its value is “neither dosage of paraoxon affected MAGL activity”.

Which “Effect on signs of cholinergic toxicity following acute PO exposure” value ([9]; po) does the source give for Cc1c(C(=O)c2cccc3ccccc23)c2cccc3c2n1[C@H](CN1CCOCC1)CO3 [WIN 55,212-2] here?
Its value is “reduced”.
